The values below come from patent US20090093476A1, “PYRROLO[1,2-A]QUINOXALINE DERIVATIVES AS ADENOSINE A3 RECEPTOR MODULATORS AND USES THEREOF” (FAUST PHARMACEUTICALS, priority 2005, published 2009).

Data set [1] has as its target T1, Human A3 receptor (Homo sapiens, UniProt P0DMS8).
T1 sequence (P0DMS8 1-318): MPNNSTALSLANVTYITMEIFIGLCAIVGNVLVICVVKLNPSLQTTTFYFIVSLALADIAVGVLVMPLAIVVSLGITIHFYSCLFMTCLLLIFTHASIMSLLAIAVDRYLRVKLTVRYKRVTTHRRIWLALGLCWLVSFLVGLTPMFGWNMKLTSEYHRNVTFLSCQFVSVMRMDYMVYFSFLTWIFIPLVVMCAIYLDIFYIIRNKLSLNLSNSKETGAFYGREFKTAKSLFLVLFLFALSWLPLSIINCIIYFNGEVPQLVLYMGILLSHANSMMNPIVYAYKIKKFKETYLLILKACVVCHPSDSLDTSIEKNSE
The data set can be described thus: Human A3 receptor binding assay, [125I]AB-MECA, HEK-293 cells. More on the design: expressed in transfected cells. As to conditions: [125I]AB-MECA 0.15 nM; for inhibition at 1 µM: read-out: hA3 inhibition at 1 μM (of specific binding); for IC50: HEK-293 cells, read-out: hA3 IC50. Here is the method: Compounds of the invention were evaluated in binding assays following procedure described by Salvatore et al. (Proc. Natl. Acad. Sci. (1993), 90:10365-10369). Human A3 receptors were used in HEK-293 cells with [^125I]AB-MECA (0.15 nM) as radioligand, IB-MECA (1 μM) for non-specific binding and 90 minutes of incubation at 22° C.

In another data set the target is T2, Human A2A receptor (Homo sapiens, UniProt P29274).
T2 construct: expressed in transfected cells; host or cells: HEK-293 cells
T2 sequence (P29274 whole entry): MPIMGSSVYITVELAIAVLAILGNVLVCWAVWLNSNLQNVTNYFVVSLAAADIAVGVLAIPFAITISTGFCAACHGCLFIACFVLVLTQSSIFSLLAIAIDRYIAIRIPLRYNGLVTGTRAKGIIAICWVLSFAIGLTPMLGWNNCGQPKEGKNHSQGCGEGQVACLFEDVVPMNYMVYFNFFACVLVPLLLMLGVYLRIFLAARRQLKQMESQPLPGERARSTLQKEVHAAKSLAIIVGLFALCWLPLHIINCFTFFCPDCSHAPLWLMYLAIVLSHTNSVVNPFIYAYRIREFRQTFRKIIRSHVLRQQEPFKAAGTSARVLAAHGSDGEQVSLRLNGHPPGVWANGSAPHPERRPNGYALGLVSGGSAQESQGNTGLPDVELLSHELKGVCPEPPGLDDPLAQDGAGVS
The data set is described as follows: Human A2A receptor binding assay, [3H]CGS 21680, HEK-293 cells. As to conditions: for inhibition at 10 µM / IC50: [3H]CGS 21680 6 nM; for inhibition at 10 µM: read-out: hA2A inhibition at 10 μM; for IC50: HEK-293 cells, read-out: hA2A IC50. Here is the method: Compounds of the invention were evaluated in binding assays following procedure described by Luthin et al. (Mol. Pharmacol. (1995), 47:307-313). Human A2A receptors were used in HEK-293 cells with [^3H]CGS 21680 (6 nM) as radioligand, NECA (10 μM) for non-specific binding and 90 minutes of incubation at 22° C.

The next data set has as its target T3, Human A2B receptor (Homo sapiens, UniProt P29275).
T3 construct: expressed in transfected cells; host or cells: HEK-293 cells
T3 sequence (P29275 1-332): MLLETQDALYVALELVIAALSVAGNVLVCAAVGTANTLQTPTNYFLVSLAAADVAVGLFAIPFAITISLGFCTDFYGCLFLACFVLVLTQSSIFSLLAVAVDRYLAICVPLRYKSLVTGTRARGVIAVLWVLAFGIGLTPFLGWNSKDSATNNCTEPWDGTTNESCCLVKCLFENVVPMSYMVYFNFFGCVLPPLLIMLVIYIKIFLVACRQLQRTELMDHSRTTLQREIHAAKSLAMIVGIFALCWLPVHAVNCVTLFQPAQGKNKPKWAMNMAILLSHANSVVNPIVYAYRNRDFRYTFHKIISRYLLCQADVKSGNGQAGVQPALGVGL
The data set is described as follows: Human A2B receptor binding assay, [3H]MRS1754, HEK-293 cells. As to conditions: for IC50: [3H]MRS1754 0.5 nM, HEK-293 cells, read-out: hA2B IC50. Here is the method:
Compounds of the invention were evaluated in binding assays following procedure described by Stehle et al. (Mol. Endocrinol. (1992), 6:384-393). Human A2B receptors were used in HEK-293 cells with [^3H]MRS1754 (0.5 nM) as radioligand, NECA (1 μM) for non-specific binding and 120 minutes of incubation at 22° C.

In another data set the target is T4, Human A1 receptor (Homo sapiens, UniProt P30542).
T4 construct: expressed in transfected cells; host or cells: CHO cells
T4 sequence (P30542 1-326): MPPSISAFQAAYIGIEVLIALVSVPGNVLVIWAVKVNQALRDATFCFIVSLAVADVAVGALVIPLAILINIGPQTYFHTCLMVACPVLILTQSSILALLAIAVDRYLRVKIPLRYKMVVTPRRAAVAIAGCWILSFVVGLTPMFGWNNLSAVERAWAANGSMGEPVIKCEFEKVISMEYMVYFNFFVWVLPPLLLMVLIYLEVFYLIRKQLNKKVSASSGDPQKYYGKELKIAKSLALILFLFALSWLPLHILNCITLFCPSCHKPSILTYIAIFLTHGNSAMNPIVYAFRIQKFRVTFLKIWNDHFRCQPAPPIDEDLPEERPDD
The data set can be described thus: Human A1 receptor binding assay, [3H]DPCPX, CHO cells. As to conditions: for inhibition at 10 µM / IC50: [3H]DPCPX 1 nM; for inhibition at 10 µM: read-out: hA1 inhibition at 10 μM; for IC50: CHO cells, read-out: hA1 IC50. Here is the method: Compounds of the invention were evaluated in binding assays following procedure described by Townsend-Nicholson and Schofield (J. Biol. Chem. (1994), 269:2373-2376). Human A1 receptors were used in CHO cells with [^3H]DPCPX (1 nM) as radioligand, DPCPX (1 μM) for non-specific binding and 60 minutes of incubation at 22° C.

Data set [2] deals with T1, Human A3 receptor. The data set is described as follows: Functional assay on human A3 receptor: forskolin-stimulated cAMP in CHO cells. It counts as cell-based. More on the design: expressed in transfected cells; host or cells: CHO cells. As to conditions: for cAMP levels: forskolin 10 μM, example 1 10 μM, Cl-IB-MECA 0.1 μM, Basal 0, Forskolin 100. Here is the method: CHO cells expressing the human A3 receptor were grown overnight as a monolayer in 24 well tissue culture plates (400 μl/well; 2×10^5 cells/well). cAMP generation was performed in Dulbecco's modified Eagle's medium (DMEM)/N-2-hydroxyethylpiperazin-N-2-ethansulfonic acid (HEPES) buffer (0.60 g HEPES/50 ml DMEM pH 7.4). Each well was washed twice with HEPES/DMEM buffer (250 μl), and the following added: rolipram (50 μM) and cilostamide (50 μM). This was incubated for 30 min at 37° C. followed by the introduction of the compound of example 1 (10 μM) and Cl-IB-MECA (0.1 μM) or DMEM/HEPES. After a further 10 min of incubation, forskolin was added (10 μM). After a subsequent 15 min, incubation was stopped by aspirating the assay medium and by adding 200 μl of ice-cold 0.1M HCl. The amount of cAMP was determined by competition with [3H]cAMP for protein kinase A (PKA). Briefly, the sample, approximately 1.8 nM [3H]cAMP, and 100 μl of PKA solution were incubated on ice for at least 2.5 h. The incubations were stopped by rapid dilution with 2 ml of icecold Tris HCl buffer (pH 7.4), and bound radioactive material was then recovered by filtration through Whatman GF/C filters. Filters were additionally rinsed with 2×2 ml of Tris HCl buffer, and then the radioactivity was counted in Packard Emulsifier Safe scintillation fluid (3.5 mL). All data reflect three independent experiments.

Structures can show the parent of a compound that is named as a salt.

The compound `c1ccc(CCNc2nc3ccccc3n3cc(-c4ccccc4)cc23)cc1` [Example 7, Phenethyl-(2-phenyl-pyrrolo[1,2-a]quinoxalin-4-yl)-amine] displayed a melting point of 126 °C.

`COc1ccc(-c2cc3c(=O)[nH]c4ccccc4n3c2)cc1` [Example 2, 2-(4-Methoxy-phenyl)-5H-pyrrolo[1,2-a]quinoxalin-4-one] registered a melting point of 327 to 332 °C. Further, the inhibition at 1 µM at Human A3 receptor [1] was 82%.

`O=C(O)C(F)(F)F.O=c1[nH]c2ccc(OCCN3CCOCC3)cc2n2cc(-c3ccccc3)cc12` [Example 17, 8-(2-Morpholin-4-yl-ethoxy)-2-phenyl-5H-pyrrolo[1,2-a]quinoxalin-4-one, trifluoroacetic acid salt]: the melting point lay within 190 to 200 °C. In addition, on Human A3 receptor [1], the IC50 is 0.0035 µM. Besides, the inhibition at 10 µM on Human A2A receptor is 57%. In addition, at Human A2B receptor, the IC50 is over 10 µM. Besides, at Human A1 receptor, the inhibition at 10 µM worked out at 54%.

As to `CCNc1nc2ccccc2n2cc(-c3ccccc3)cc12.Cl`, the melting point lay in the range of 299 to 301 °C.

For the compound `Cc1ccc2[nH]c(=O)c3cc(-c4ccccc4)cn3c2c1` [Example 12, 8-Methyl-2-phenyl-5H-pyrrolo[1,2-a]quinoxalin-4-one], the melting point is 314 to 315 °C.

For `O=c1[nH]c2ccc(Cl)cc2n2cc(-c3ccccc3)cc12` [Example 13, 8-Chloro-2-phenyl-5H-pyrrolo[1,2-a]quinoxalin-4-one], the melting point was found to be 346 °C.

In turn, `c1ccc(Nc2nc3ccccc3n3cc(-c4ccccc4)cc23)cc1` [Example 3, Phenyl-(2-phenyl-pyrrolo[1,2-a]quinoxalin-4-yl)-amine] yielded a melting point of 172 °C.

Consider `CSc1nc2ccccc2n2cc(-c3ccccc3)cc12` [Example 9, 4-Methylsulfanyl-2-phenyl-pyrrolo[1,2-a]quinoxaline], for which the melting point was determined as 132 °C.

`CN1CCN(c2ccc3[nH]c(=O)c4cc(-c5ccccc5)cn4c3c2)CC1` [Example 14, 8-(4-Methyl-piperazin-1-yl)-2-phenyl-5H-pyrrolo[1,2-a]quinoxalin-4-one]: the IC50 is 0.011 µM at Human A3 receptor [1], over 10 µM at Human A2A receptor, over 10 µM on Human A2B receptor and 8.4 µM at Human A1 receptor.

On to `O=c1[nH]c2ccccc2n2cc(-c3ccccc3)cc12` [Example 1, 2-Phenyl-5H-pyrrolo[1,2-a]quinoxalin-4-one], for which the melting point was in the range of 301 to 303 °C. Further, on Human A3 receptor [1], the IC50 worked out at 0.0093 µM. In addition, the “mode of action at A3 receptor (prevents cAMP-decrease evoked by Cl-IB-MECA)” value on Human A3 receptor [2] (example 1 10 μM vs Cl-IB-MECA 0.1 μM) is listed as “antagonist”. For the same compound, the cAMP levels on Human A3 receptor [2] (n = 1) turned out to be 150.133. The compound further showed a cAMP levels on Human A3 receptor [2] (n = 2) of 130.150. In addition, the cAMP levels at Human A3 receptor [2] (n = 3) worked out at 104.510. Besides, the IC50 on Human A2A receptor is over 10 µM. The “affinity on A2A (in words)” value on Human A2A receptor (up to 10 μM) is given as “no detectable affinity”. Also, the IC50 at Human A2B receptor is over 1 µM. For the same compound, the “affinity on A2B (in words)” value on Human A2B receptor (up to 1 μM) is “no detectable affinity”. On Human A1 receptor, the IC50 was over 10 µM. Further, the “affinity on A1 (in words)” value at Human A1 receptor (up to 10 μM) is “no detectable affinity”.

In the case of `O=c1[nH]c2ccc(NCCCN3CCOCC3)cc2n2cc(-c3ccccc3)cc12` [Example 15, 8-(3-Morpholin-4-yl-propylamino)-2-phenyl-5H-pyrrolo[1,2-a]quinoxalin-4-one, trifluoro-acetic acid salt], the IC50 at Human A3 receptor [1] was 0.0031 µM; on Human A2B receptor, over 10 µM. Moreover, the results for the inhibition at 10 µM at Human A2A receptor and at Human A1 receptor were 69% and 53%, respectively.

Turning to `CN(C)c1nc2ccccc2n2cc(-c3ccccc3)cc12` [Example 6, Dimethyl-(2-phenyl-pyrrolo[1,2-a]quinoxalin-4-yl)-amine], the melting point lay in the range of 109 to 111 °C.

In the case of `CN(C)c1ccc(-c2cc3c(=O)[nH]c4ccccc4n3c2)cc1` [Example 10, 2-(4-Dimethylamino-phenyl)-5H-pyrrolo[1,2-a]quinoxalin-4-one, trifluoroacetic acid salt], at Human A3 receptor [1], the inhibition at 1 µM was found to be 32%.

`O=c1[nH]c2ccc(N3CCOCC3)cc2n2cc(-c3ccccc3)cc12` [Example 11, 8-Morpholin-4-yl-2-phenyl-5H-pyrrolo[1,2-a]quinoxalin-4-one, trifluoroacetic acid salt]: on Human A3 receptor [1], the inhibition at 1 µM worked out at 90%. The IC50 on Human A2A receptor and at Human A2B receptor was over 10 µM in each case. Further, the inhibition at 10 µM at Human A1 receptor is 53%.
